{
  "source": "patent US9090623B2",
  "about": "“Compound JK12A and preparation thereof” (LIANYUNGANG JINKANG HEXIN PHARMACEUTICAL CO., LTD., priority 2012, dated 2015)",
  "origin": "cited, not measured here",
  "test_system": "HeLa S3 cells",
  "settings": "reported in Org. Lett. 2008, 10, 489-491; cited from earlier work",
  "data": [
    {"smiles": "COC(=O)c1ccc(N2CC3CNC(=O)C2(C(=O)OC)N3C)cc1", "note": "(stereo not shown) [Aplaminal]", "values": [
      {"measurement": "cytotoxicity against HeLa S3 cells IC50", "result": 0.51, "unit": "µg/mL"}
    ]}
  ]
}
